In the assay the target is T1, NPR-B (Homo sapiens, UniProt P20594).
T1 construct: a functional assay using endogenously NPR-B expressing GTM-3 cells; endogenous in cells; host or cells: GTM-3 (transformed human trabecular meshwork cells)
T1 sequence (P20594 23-1047): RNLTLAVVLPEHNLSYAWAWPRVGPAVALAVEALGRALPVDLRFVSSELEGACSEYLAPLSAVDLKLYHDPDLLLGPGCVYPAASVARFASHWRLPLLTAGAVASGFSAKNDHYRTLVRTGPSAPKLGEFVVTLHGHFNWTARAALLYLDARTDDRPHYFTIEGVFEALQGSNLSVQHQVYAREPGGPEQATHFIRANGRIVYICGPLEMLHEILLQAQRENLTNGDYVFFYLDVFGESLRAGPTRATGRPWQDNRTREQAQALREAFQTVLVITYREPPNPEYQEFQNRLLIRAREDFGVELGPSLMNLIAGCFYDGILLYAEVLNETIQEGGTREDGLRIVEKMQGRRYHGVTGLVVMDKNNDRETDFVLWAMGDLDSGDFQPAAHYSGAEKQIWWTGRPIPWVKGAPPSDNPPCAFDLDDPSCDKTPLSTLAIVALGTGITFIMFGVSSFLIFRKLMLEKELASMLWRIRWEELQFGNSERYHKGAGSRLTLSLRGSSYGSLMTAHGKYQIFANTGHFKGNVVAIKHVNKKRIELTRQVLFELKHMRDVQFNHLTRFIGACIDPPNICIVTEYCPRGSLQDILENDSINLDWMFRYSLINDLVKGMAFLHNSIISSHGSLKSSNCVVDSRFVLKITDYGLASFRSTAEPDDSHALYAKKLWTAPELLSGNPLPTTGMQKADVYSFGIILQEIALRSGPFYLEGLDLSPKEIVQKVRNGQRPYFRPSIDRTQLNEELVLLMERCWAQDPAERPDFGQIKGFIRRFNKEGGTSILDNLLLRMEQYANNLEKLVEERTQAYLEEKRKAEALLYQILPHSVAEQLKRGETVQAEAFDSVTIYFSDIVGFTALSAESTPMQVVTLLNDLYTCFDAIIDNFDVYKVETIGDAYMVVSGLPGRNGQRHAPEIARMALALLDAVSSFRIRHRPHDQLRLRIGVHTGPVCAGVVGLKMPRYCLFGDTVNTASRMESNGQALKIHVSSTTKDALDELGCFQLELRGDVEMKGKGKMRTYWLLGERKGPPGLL
In words: NPR-B induced production of cyclic GMP in GTM-3 cells. The class given is cell-based. The method in brief:
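GTM-3 cells with endogenous NPR-B were washed and preincubated 15 min at room temperature in medium with 1 mM IBMX. Compounds were tested at final 45 μM to 20 nM; dose-dependent cGMP production gave Emax and EC50.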

Setting [1] is: Activity (group): NPR-B activation, EC50 and Emax (CNP = 100%), GTM-3 cells, group needs both EC50 and Emax criteria, checked A then B then C.
The mark [2] stands for this setting: Activity (group): NPR-B activation, EC50 and Emax (CNP = 100%).
[3] abbreviates: GTM-3 cells, group needs both EC50 and Emax criteria, checked A then B then C, read-out: Activity (group): NPR-B activation, EC50 and Emax (CNP = 100%).

These results are taken from patent US9458198B1, “Cyclic peptide-based NPR-B agonists” (priority 2009, dated 2016).

Like-named read-outs stand apart in the source and are kept apart here. Where a SMILES comes first, the peptide text is derived from it. Bridges are numbered along the chain shown (N, C = ends). [ ]: non-standard residue; d: D form. The star is where a group is joined. Hexanoyl = CCCCCC(=O)*

Compound `CC[C@H](C)[C@@H]1NC(=O)[C@H](CCCNC(=N)N)NC(=O)[C@H](CC(=O)O)NC(=O)[C@H](CC(C)C)NC(=O)[C@H](CCCCN)NC(=O)[C@H](CC(C)C)NC(=O)CNC(=O)[C@H](Cc2ccccc2)NC(=O)[C@@H](C)NC(=O)[C@@H](NC(=O)c2ccccc2)CSSC[C@@H](C(N)=O)NC(=O)[C@H](CO)NC1=O` [compound 66] returned a concentration for a half-maximal effect (EC50) under setting [1] below 5 µM.

In the case of `CC[C@H](C)[C@@H]1NC(=O)[C@H](CCCNC(=N)N)NC(=O)[C@H](CC(=O)O)NC(=O)[C@H](CC(C)C)NC(=O)[C@H](CCCCN)NC(=O)[C@H](CC(C)C)NC(=O)CNC(=O)[C@H](Cc2ccccc2)NC(=O)[C@@H](C)NC(=O)[C@@H](NC(=O)CCCC(C)C)CSSC[C@@H](C(N)=O)NC(=O)[C@H](CO)NC1=O` [compound 67], the EC50 under setting [2] is below 1 µM.

In turn, `CCCCCCCC(=O)N[C@H]1CSSC[C@@H](C(N)=O)NC(=O)[C@H](CO)NC(=O)[C@H]([C@@H](C)CC)NC(=O)[C@H](CCCNC(=N)N)NC(=O)[C@H](CC(=O)O)NC(=O)[C@H](CC(C)C)NC(=O)[C@H](CCCCN)NC(=O)[C@H](CC(C)C)NC(=O)CNC(=O)[C@H](Cc2ccccc2)NC(=O)[C@@H](C)NC1=O` [compound 68] displayed a concentration giving a half-maximal response (EC50) under setting [2] below 1 µM.

Turning to `CC[C@H](C)[C@@H]1NC(=O)[C@H](CCCNC(=N)N)NC(=O)[C@H](CC(=O)O)NC(=O)[C@H](CC(C)C)NC(=O)[C@H](CCCCN)NC(=O)[C@H](CC(C)C)NC(=O)CNC(=O)[C@H](Cc2ccccc2)NC(=O)[C@@H](C)NC(=O)[C@@H](NC(=O)Cc2ccccc2)CSSC[C@@H](C(N)=O)NC(=O)[C@H](CO)NC1=O` [compound 69], the EC50 under setting [1] was below 5 µM.

As for `CC[C@H](C)[C@@H]1NC(=O)[C@H](CCCNC(=N)N)NC(=O)[C@H](CC(=O)O)NC(=O)[C@H](CC(C)C)NC(=O)[C@H](CCCCN)NC(=O)[C@H](CC(C)C)NC(=O)CNC(=O)[C@H](Cc2ccccc2)NC(=O)[C@@H](C)NC(=O)[C@@H](NC(=O)CCc2ccccc2)CSSC[C@@H](C(N)=O)NC(=O)[C@H](CO)NC1=O` [compound 70], the EC50 under setting [2] was below 1 µM.

With `CCCCS(=O)(=O)N[C@H]1CSSC[C@@H](C(N)=O)NC(=O)[C@H](CO)NC(=O)[C@H]([C@@H](C)CC)NC(=O)[C@H](CCCNC(=N)N)NC(=O)[C@H](CC(=O)O)NC(=O)[C@H](CC(C)C)NC(=O)[C@H](CCCCN)NC(=O)[C@H](CC(C)C)NC(=O)CNC(=O)[C@H](Cc2ccccc2)NC(=O)[C@@H](C)NC1=O` [compound 71], the EC50 under setting [3] was below 5 µM.

Under setting [2], `CC[C@H](C)[C@@H]1NC(=O)[C@H](CCCNC(=N)N)NC(=O)[C@H](CC(=O)O)NC(=O)[C@H](CC(C)C)NC(=O)[C@H](CCCCN)NC(=O)[C@H](CC(C)C)NC(=O)CNC(=O)[C@H](Cc2ccccc2)NC(=O)[C@@H](C)NC(=O)[C@@H](NC(=O)CCCc2ccccc2)CSSC[C@@H](C(N)=O)NC(=O)[C@H](CO)NC1=O` [compound 72] returned an EC50 below 1 µM.

Compound `CC[C@H](C)[C@@H]1NC(=O)[C@H](CCCNC(=N)N)NC(=O)[C@H](CC(=O)O)NC(=O)[C@H](CC(C)C)NC(=O)[C@H](CCCCN)NC(=O)[C@H](CC(C)C)NC(=O)CNC(=O)[C@H](Cc2ccccc2)NC(=O)[C@@H](C)NC(=O)[C@@H](N)CSSC[C@@H](C(N)=O)NC(=O)[C@H](CO)NC1=O` [compound 73] registered an EC50 under setting [1] below 15 µM.

Turning to `CCCCCC(=O)N[C@H]1CSSC[C@@H](C(N)=O)NC(=O)[C@H](CO)NC(=O)[C@H]([C@@H](C)CC)NC(=O)[C@H](CCCNC(=N)N)NC(=O)[C@H](CC(=O)O)NC(=O)[C@H]([C@@H](C)CC)NC(=O)[C@H](CCCCN)NC(=O)[C@H](CC(C)C)NC(=O)CNC(=O)[C@H](Cc2ccccc2)NC(=O)[C@@H](C)NC1=O` [compound 87] (Hexanoyl-C[dA]FGLKIDRISC-NH2; disulfide 1-12), the EC50 under setting [3] is below 1 µM.

`CCCCCC(=O)N[C@H]1CSSC[C@@H](C(N)=O)NC(=O)[C@H](CO)NC(=O)[C@H]([C@@H](C)CC)NC(=O)[C@H](CCCNC(=N)N)NC(=O)[C@H](CC(=O)O)NC(=O)[C@H]([C@@H](C)CC)NC(=O)[C@@H]2CCCN2C(=O)[C@H](CC(C)C)NC(=O)CNC(=O)[C@H](Cc2ccccc2)NC(=O)[C@@H](C)NC1=O` [compound 88] (Hexanoyl-C[dA]FGLPIDRISC-NH2; disulfide 1-12) returned an EC50 under setting [1] below 1 µM.

Take `CCCCCC(=O)N[C@H]1CSSC[C@@H](C(N)=O)NC(=O)[C@H](CO)NC(=O)[C@H]([C@@H](C)CC)NC(=O)[C@H](CCCNC(=N)N)NC(=O)[C@H](CC(=O)O)NC(=O)[C@H]([C@@H](C)CC)NC(=O)[C@@H]2CCCN2C(=O)[C@H](CC(C)C)NC(=O)CNC(=O)[C@H](Cc2ccccc2)NC(=O)[C@H]2CCCN2C1=O` [compound 89] (Hexanoyl-C[dP]FGLPIDRISC-NH2; disulfide 1-12): the EC50 under setting [1] was below 1 µM.

With `CCCCCC(=O)N[C@H]1CSSC[C@@H](C(N)=O)NC(=O)[C@H](CO)NC(=O)[C@H]([C@@H](C)CC)NC(=O)[C@H](CCCNC(=N)N)NC(=O)[C@H](CC(=O)O)NC(=O)[C@H](CC(C)C)NC(=O)[C@H](CCCCN)NC(=O)[C@H](CC(C)C)NC(=O)CNC(=O)[C@H](Cc2ccccc2)NC(=O)[C@H]2CCCN2C1=O` [compound 90], under setting [3], the EC50 is below 1 µM.

For `CCCCCC(=O)N[C@H]1CSSC[C@@H](C(N)=O)NC(=O)[C@H](CO)NC(=O)[C@H]([C@@H](C)CC)NC(=O)[C@H](CCCNC(=N)N)NC(=O)[C@H](CC(=O)O)NC(=O)[C@H](CC(C)C)NC(=O)[C@@H]2CCCN2C(=O)[C@H](CC(C)C)NC(=O)CNC(=O)[C@H](Cc2ccccc2)NC(=O)[C@H]2CCCN2C1=O` [compound 91] (Hexanoyl-C[dP]FGLPLDRISC-NH2; disulfide 1-12), under setting [1], the EC50 was below 1 µM.

Under setting [2], `CCCCCC(=O)N[C@H]1CSSC[C@@H](C(N)=O)NC(=O)[C@H](CO)NC(=O)[C@H]([C@@H](C)CC)NC(=O)[C@H](CCCNC(=N)N)NC(=O)[C@H](CC(=O)O)NC(=O)[C@H]([C@@H](C)CC)NC(=O)[C@H](CCCCN)NC(=O)[C@H](CC(C)C)NC(=O)CNC(=O)[C@H](Cc2ccccc2)NC(=O)[C@H]2CCCN2C1=O` [compound 92] (Hexanoyl-C[dP]FGLKIDRISC-NH2; disulfide 1-12) had an EC50 below 1 µM.

Compound `CCCCCC(=O)N[C@H]1CSSC[C@@H](C(N)=O)NC(=O)[C@H](CO)NC(=O)[C@H]([C@@H](C)CC)NC(=O)[C@H](CCCNC(=N)N)NC(=O)[C@H](CC(=O)O)NC(=O)[C@H](CC(C)C)NC(=O)[C@@H]2CCCN2C(=O)[C@H](CC(C)C)NC(=O)CNC(=O)[C@H](Cc2ccccc2)NC(=O)[C@@H](C)NC1=O` [compound 93] yielded an EC50 under setting [1] below 1 µM.

As for `CCCCCC(=O)N[C@H]1CSSC[C@@H](C(N)=O)NC(=O)[C@H](CO)NC(=O)[C@H]([C@@H](C)CC)NC(=O)[C@H](CCCNC(=N)N)NC(=O)[C@H](CC(=O)O)NC(=O)[C@H](CC(C)C)NC(=O)[C@H](CCCCN)NC(=O)[C@H]([C@@H](C)O)NC(=O)CNC(=O)[C@H](Cc2ccccc2)NC(=O)[C@@H](C)NC1=O` [compound 100] (Hexanoyl-C[dA]FGTKLDRISC-NH2; disulfide 1-12), the EC50 under setting [3] was below 5 µM.

With `CCCCCC(=O)N[C@H]1CSSC[C@@H](C(N)=O)NC(=O)[C@H](CO)NC(=O)[C@H]([C@@H](C)CC)NC(=O)[C@H](CCCNC(=N)N)NC(=O)[C@H](CC(=O)O)NC(=O)[C@H](CC(C)C)NC(=O)[C@H](CCCCN)NC(=O)[C@H](C)NC(=O)CNC(=O)[C@H](Cc2ccccc2)NC(=O)[C@@H](C)NC1=O` [compound 101] (Hexanoyl-C[dA]FGAKLDRISC-NH2; disulfide 1-12), the EC50 under setting [3] was below 5 µM.

What is called EC50 is the concentration that produces a half-maximal response.
